Results published in patent US20220073536A1 (Rigel Pharmaceuticals, Inc., priority 2003, published 2022).
Several values for one entry are separate records, joined by “and”; a condition that tells them apart may be missing. Identical values can stand only once.

Experiments:
[1] = test system: cultured human mast cells (CHMC); assay: CHMC low cell density IgE activation: tryptase assay; assay type: cell-based; settings: Homo sapiens, Mast cell, IgE activation
Outline: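 CHMC at 1000–1500 cells/well were preincubated 1 hr at 37° C., stimulated with anti-IgE for 30 minutes at 37° C., then pelleted. Supernatant tryptase was measured with a fluorogenic substrate after 30 min at room temperature, against un-stimulated control wells.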

C57BL/6 mice = assay: Mouse cutaneous Reverse Passive Arthus (RPA) reaction, edema; assay type: in vivo
Excerpt: Immune complex (IC)-mediated acute inflammatory tissue injury is implicated in a variety of human autoimmune diseases, including vasculitis syndrome, sick serum syndrome, systemic lupus erythematosus (SLE), rheumatoid arthritis, Goodpasture's syndrome, and glomerulonephritis. The classical experimental model for IC-mediated tissue injury is the reverse passive Arthus reaction. The RPA reaction model is a convenient in vivo method to study localized inflammation, induced by ICs, without systemic effects. Intradermal injection of antibodies (Abs) specific to chicken egg albumin (rabbit anti-OVA IgG), followed by intravenous (IV) injection of antigens (Ags), specifically chicken egg albumin (ovalbumin, OVA), causes perivascular deposition of ICs and a rapid inflammatory response characterized by edema, neutrophil infiltration and hemorrhage at the injection sites. Aspects of the mouse RPA reaction model resemble the inflammatory response of patients with rheumatoid arthritis, SLE and glomerulonephritis.
(§1) In this model system, test compounds are administered at several timepoints prior to administration of Abs and Ags. A solution of rabbit anti-OVA IgG ([…] in 25 μl/mouse) is injected intradermally, and immediately following is an intravenous injection of chicken egg albumin (20 mg/kg of body weight) in a solution containing 1% Evans blue dye. The degree of edema and hemorrhage is measured in the dorsal skin of C57BL/6 mice using the Evan's Blue dye as an indicator of local tissue damage. Purified polyclonal rabbit IgG is used as a control.
Pretreatment time, in which the test compounds are administered prior to Ab/Ag challenge, depends on the pharmacokinetic (PK) properties of each individual compound. Four hours after induction of Arthus reaction, mice are euthanized, and tissues are harvested for assessment of edema. This model system allows us to rapidly screen the in vivo activity of many inhibitors.
(§2) All compounds tested were administered by the oral route.

[2] = test system: cultured human mast cells (CHMC); assay: CHMC low cell density ionomycin activation: tryptase assay; assay type: cell-based; settings: Homo sapiens, Mast cell, 3 pt, read-out: LD Tryptase, CHMC, Iono, 3 pt
[3] = Plasma concentration in the mouse RPA reaction study; assay type: in vivo
Method: as §1
Pretreatment time, in which the test compounds are administered prior to Ab/Ag challenge, depends on the pharmacokinetic (PK) properties of each individual compound. Four hours after induction of Arthus reaction, mice are euthanized, and tissues are harvested for assessment of edema.
as §2

[4] = 0.1 mg/kg oral, pretreatment time 0.5 hrs
[5] = 0.5 mg/kg oral, pretreatment time 0.5 hrs
[6] = 1 mg/kg oral, pretreatment time 0.5 hrs
[7] = 5 mg/kg oral, pretreatment time 0.5 hrs
[8] = low cell density, 3 pt, read-out: LD Tryptase, CHMC, IgE, 3 pt
[9] = low cell density, 8 pt, read-out: LD Tryptase, CHMC, IgE, 8 pt
[10] = oral, dosage 0.5, pretreatment 5
[11] = oral, printed in dosage position 0.5, in pretreatment position 15

SMILES: Cc1nc2ccc(Nc3ncc(F)c(Nc4ccc5c(c4)NC(=O)C(C)(C)O5)n3)cc2[nH]1 [Compound 810, N4-(2,2-Dimethyl-3-oxo-4H-benz[1,4]oxazin-6-yl)-5-fluoro-N2-(2-methyl-3H-benzimidazol-5-yl)-2,4-pyrimidinediamine]
- IC50 ([1]; low cell density CHMC, tryptase release, 3 pt, read-out: LD Tryptase, CHMC, IgE, 3 pt): < 10 µM
- IC50 ([1]; low cell density CHMC, tryptase release, 8 pt, read-out: LD Tryptase, CHMC, IgE, 8 pt): < 10 µM
- % inhibition to vehicle control Edema Size ± SEM (C57BL/6 mice; [4]): 69.5 ± 19.6%
- % inhibition to vehicle control Edema Size ± SEM (C57BL/6 mice; [5]): 60.9 ± 9.6%
- % inhibition to vehicle control Edema Size ± SEM (C57BL/6 mice; [6]): 81.3% and 81.3 ± 8.4%
- % inhibition to vehicle control Edema Size ± SEM (C57BL/6 mice; [7]): 92.1 ± 3.1%
- IC50 ([2]; low cell density CHMC, tryptase release): > 10 µM

SMILES: Cn1c(N2CCOCC2)nc2cc(Nc3ncc(F)c(Nc4ccc5c(c4)NC(=O)C(C)(C)O5)n3)ccc21 [Compound 944, N4-(2,2-Dimethyl-3-oxo-4H-benz[1,4]oxazin-6-yl)-5-fluoro-N2-[1-methyl-2-(4-morpholino)benzimidazol-5-yl]-2,4-pyrimidinediamine]
- IC50 [1, 8]: < 10 µM
- IC50 [1, 9]: < 10 µM
- % inhibition to vehicle control Edema Size ± SEM (C57BL/6 mice; 2 mg/kg oral, pretreatment time 1 hr): 39.3 ± 13.8%
- % inhibition to vehicle control Edema Size ± SEM (C57BL/6 mice; 5 mg/kg oral, pretreatment time 1 hr): 48.4 ± 12.0%
- % inhibition to vehicle control Edema Size ± SEM (C57BL/6 mice; 15 mg/kg oral, pretreatment time 1 hr): 56.1 ± 9.2%
- % inhibition to vehicle control Edema Size ± SEM (C57BL/6 mice; [10]): −16.0 ± 17.3%
- % inhibition to vehicle control Edema Size ± SEM (C57BL/6 mice; [11]): 8.3 ± 13.4%
- Exposure = Pretreatment Time + 4 hours Plasma Concentration ± SEM [3, 10]: 3.4 ± 9.1 ng/mL
- Satellite: At time of challenge Plasma Concentration ± SEM [3, 10]: 22.1 ± 52.4 ng/mL
- Exposure = Pretreatment Time + 4 hours Plasma Concentration ± SEM [3, 11]: 85.1 ± 161.9 ng/mL
- Satellite: At time of challenge Plasma Concentration ± SEM [3, 11]: 1074.0 ± 492.3 ng/mL

SMILES: COc1c(C)cc(Nc2ncc(F)c(Nc3ccc4c(c3)NC(=O)C(C)(C)O4)n2)cc1Cl.Cc1ccc(S(=O)(=O)O)cc1 [Compound 994, N2-(3-Chloro-4-methoxy-5-methylphenyl)-N4-(2,2-dimethyl-3-oxo-4H-benz[1,4]oxazin-6-yl)-5-fluoro-2,4-pyrimidinediamine p-Toluenesulfonic Acid Salt]
- IC50 ([1]; CHMC, read-out: in vitro Potency (CHMC IgE)): 0.047 µM
- IC50 [1, 8]: < 10 µM
- IC50 [1, 9]: < 10 µM
- % inhibition to vehicle control Edema Size ± SEM (C57BL/6 mice; 100 mg/kg oral, 90 minutes prior to Ab/Ag challenge (pretreatment cell of table empty), C57BL/6 mice): 75% and 75.0 ± 6.2%
- IC50 ([2]; low cell density): < 10 µM

SMILES: COc1cc(Nc2ncc(F)c(Nc3ccc4c(n3)NC(=O)C(C)(C)O4)n2)cc(OC)c1OC [Compound 1007, N4-(2,2-Dimethyl-3-oxo-4H-5-pyrid[1,4]oxazin-6-yl)-5-fluoro-N2-(3,4,5-trimethoxyphenyl)-2,4-pyrimidinediamine]
- % inhibition to vehicle control Edema Size ± SEM (C57BL/6 mice; [4]): 64.3% and 64.3 ± 11.2%
- % inhibition to vehicle control Edema Size ± SEM (C57BL/6 mice; [5]): 78.7% and 78.7 ± 6.3%
- % inhibition to vehicle control Edema Size ± SEM (C57BL/6 mice; [6]): 89.4 ± 2.2% and 98.1 ± 0.8%
- % inhibition to vehicle control Edema Size ± SEM (C57BL/6 mice; 3 mg/kg oral, pretreatment time 0.5 hrs): 86.3 ± 7.9%
- % inhibition to vehicle control Edema Size ± SEM (C57BL/6 mice; [7]): 99.8% and 99.8 ± 0.2%
- % inhibition to vehicle control Edema Size ± SEM (C57BL/6 mice; 10 mg/kg oral, pretreatment time 0.5 hrs): 97.8 ± 1.1%
- % inhibition to vehicle control Edema Size ± SEM (C57BL/6 mice; 30 mg/kg oral, pretreatment time 0.5 hrs): 88.2 ± 5.7%
- Exposure = Pretreatment Time + 4 hours Plasma Concentration ± SEM [3, 4]: BLQ
- Exposure = Pretreatment Time + 4 hours Plasma Concentration ± SEM [3, 5]: BLQ
